The source of these data is US12350306B2, “Modifying taste and sensory irritation of smokeless tobacco and non-tobacco products” (Altria Client Services LLC, priority 2013, dated 2025).

The conditions of test [1]: experimental animal models; cited from earlier work.
A further test addresses TRPV1 channel (Homo sapiens, UniProt Q8NER1). The following applies: cited from earlier work.
Test [2] can be described thus: Perceived bitterness of caffeinated water formulations. It is filed as in vivo. The following applies: caffeinated water formulation. On the procedure: Liquid formulations were prepared by combining caffeinated water or commercially available grapefruit juice with Cremophor® alone, citric acid alone or the combination of Cremophor® and citric acid. […] Because grapefruit juice naturally contains citric acid, citric acid was not added to the grapefruit juice formulations.

Chain of TRPV1 channel (Q8NER1 whole entry): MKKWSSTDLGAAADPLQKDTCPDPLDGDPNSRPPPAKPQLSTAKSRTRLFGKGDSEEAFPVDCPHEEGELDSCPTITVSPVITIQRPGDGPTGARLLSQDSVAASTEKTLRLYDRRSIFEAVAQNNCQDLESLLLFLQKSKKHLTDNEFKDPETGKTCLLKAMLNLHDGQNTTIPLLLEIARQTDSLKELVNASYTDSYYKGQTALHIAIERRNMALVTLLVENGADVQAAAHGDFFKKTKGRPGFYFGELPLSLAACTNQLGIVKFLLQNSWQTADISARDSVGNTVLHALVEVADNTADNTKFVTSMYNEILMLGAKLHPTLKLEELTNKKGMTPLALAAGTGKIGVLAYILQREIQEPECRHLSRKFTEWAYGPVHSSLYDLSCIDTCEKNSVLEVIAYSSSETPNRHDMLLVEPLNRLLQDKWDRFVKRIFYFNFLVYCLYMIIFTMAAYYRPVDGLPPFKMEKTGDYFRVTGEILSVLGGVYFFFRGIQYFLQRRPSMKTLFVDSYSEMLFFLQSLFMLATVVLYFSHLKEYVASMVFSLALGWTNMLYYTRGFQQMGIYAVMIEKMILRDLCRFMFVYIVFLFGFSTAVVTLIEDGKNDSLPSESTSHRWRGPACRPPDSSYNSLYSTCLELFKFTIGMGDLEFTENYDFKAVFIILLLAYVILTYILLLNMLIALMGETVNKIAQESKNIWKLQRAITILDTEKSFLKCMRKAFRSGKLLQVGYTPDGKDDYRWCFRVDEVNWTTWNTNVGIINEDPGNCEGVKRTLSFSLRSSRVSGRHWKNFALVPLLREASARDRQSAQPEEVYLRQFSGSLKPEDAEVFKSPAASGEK

On to `CCCCCC[C@@H](O)C/C=C/CCCCCCCC(=O)O` (stereo in doubt) [Ricinoleic acid, 12-hydroxy-9-cis-octadecenoic acid], for which, in test [1], the anti-inflammatory effects result is reported as “anti-inflammatory effects”. For the same molecule, at TRPV1 channel, the TRPV1 channel desensitization entry is “can desensitize the TRPV1 channel”.
Take `O=C(O)CC(O)(CC(=O)O)C(=O)O` [citric acid]: the perceived bitterness entry in test [2] was “little noticeable effect”.
